Measurements from patent US10010560B2, “Small molecule HSP70 inhibitors” (THE TRUSTEES OF THE UNIVERSITY OF PENNSYLVANIA, priority 2014, dated 2018).

What was measured:
[1] = test system: non-transformed cells (fibroblasts, primary melanocytes); assay: Viability of non-transformed cells; type: cell-based, human; conditions: at concentrations that inhibit tumor cell viability
Description: (§1) FIGS. 2A-2D illustrate the cytotoxicity of PET-16 to human tumor cells and its inhibition on E. coli growth. FIG. 2A is a line graph with data obtained from MTT assays of human melanoma cell lines treated with the indicated concentrations of PES or PET-16 for 72 h. The corresponding cell survival is normalized to vehicle (DMSO) treatment. Average and standard deviation (s.d.) from three independent experiments are shown. FIG. 2B are bar graphs of human melanoma (A875) cells and nontransformed human (IMR90) fibroblasts that were treated with DMSO, 10 μM PES or 10 μM PET-16 for 24 h. […] FIG. 2C is a line graph illustrating the growth of E. coli DH5α treated with different concentrations of PES or PET-16 for 6 h at 43° C. Error bars represent the s.d. of four independent experiments. FIG. 2D is a bar graph illustrating the growth of E. coli DH5α treated with DMSO, 30 μM PET-16 or 30 μM TPP for 6 h at 43° C. Error bars represent the s.d. of four independent experiments.

[2] = test system: E. coli DH5α; assay: Growth of E. coli DH5α at 43° C.; type: cell-based
Description: as §1
FIGS. 9A-9H illustrate that PET-16 binds directly to ADP-bound HSP70 and is cytotoxic to human tumor cells. FIGS. 9A-9C are ITC assays of the interaction of PET-3C with purified human HSP70-ADP (A), human HSP70-ATP (B) and DnaK-ADP (C) proteins. The data are representative of three independent experiments. FIG. 9D is a line graph of an MTT assay of the human melanoma cell line 1205 Lu treated with the indicated concentrations of PET-16 (---) or PET-3C (-) for 72 h. The corresponding cell survival is normalized to the DMSO-treatment. Average and standard deviation (s.d.) from three independent experiments are shown. FIG. 9E is a line graph illustrating the growth of E. coli DH5α strain treated with different concentrations of PET-16 (black) or PET-3C (gray) for 6 h at 43° C. Error bars represent the s.d. of four independent experiments. FIG. 9F is a bar graph illustrating the growth of E. coli DH5α treated with DMSO, 30 μM PET-16, 30 μM PET-3C or 30 μM TPP for 6 h at 43° C. Error bars represent the s.d. of four independent experiments. […]

[3] = test system: melanoma tumor cell line WM989; assay: Combination with BRAF inhibitor Vemurafenib, viability; type: cell-based, human
Source text: FIG. 6 is a line graph illustrating that PET-16 synergizes with the BRAF inhibitor Vemurafenib to reduce the viability of the melanoma tumor cell line WM989 (▪). WM989 cells treated singularly with Vemurafenib are depicted by (●). No synergy was detected between Vemurafenib and PES-Cl.

[4] = test system: mouse melanoma cell line B16; assay: Pulmonary metastatic model, B16 melanoma; type: in vivo; conditions: C57BL/6 mice injected with B16
Description: FIGS. 7A-7C illustrate that PET-16 impairs metastasis in a mouse model of melanoma. A well-recognized pulmonary metastatic model was utilized in which immunocompetent, wild-type C57BL/6 mice were injected with the highly metastatic mouse melanoma cell line B16, as indicated. […] FIG. 7A is a summary of the steps entailed in the model. FIG. 7B are photographs of biopsied lungs obtained from the infected mice. FIG. 7C provides a graphical representation of counts of metastatic colonies intermediate gray square represents 0 colonies, lightest gray square represents 1-10 colonies and darkest gray square represents >10 colonies) seen in lungs of vehicle-, PES-Cl- or PET-16-treated mice.
The inhibitory effect of PET-16 on metastasis was tested in vivo, a well-recognized pulmonary metastatic model was utilized in which immunocompetent, wild-type C57BL/6 mice were injected with the highly metastatic mouse melanoma cell line B16 (FIG. 7).

[5] = test system: mouse melanoma cell line Yumm 1.7; assay: In vivo melanoma model, Yumm 1.7; conditions: single agent, C57BL/6 mice
Description: FIGS. 14A and 14B provide evidence that PET-16 impairs melanoma growth in vivo as a single agent. A well-recognized pulmonary metastatic model was utilized in which immunocompetent, wild-type C57BL/6 mice were injected with the metastatic mouse melanoma cell line Yumm 1.7, as indicated. […] FIG. 14A is a summary of the steps entailed in the model.

[6] = biological target: HSP70 (Homo sapiens, UniProt P0DMV8); assay: Immunoprecipitation of HSP70 and co-precipitating proteins; type: cell-based; design: endogenous in cells; host or cells: A875 and 451 Lu human melanoma cells; conditions: IP-WB, A875 or 451 Lu cells
Source text: FIGS. 4A-4L illustrate that PET-16 impairs proteostasis. […] There is a general absence of obvious nuclei in PET-16 treated tumor cells. […] FIGS. 4D and 4E are gels of whole-cell extracts (WCE) prepared from human melanoma A875 (D) or 451 Lu (E) cells treated with DMSO, PES or PET-16 that were immunoprecipitated using an anti-HSP70 antibody. The excised band of about 70 kDa shown in the Coomassie gel is HSP70, as confirmed by liquid chromatography—tandem mass spectrometry analysis. FIGS. 4F-4I are western blots of cell lines were treated with DMSO, PES or PET-16 for 24 h and immunoblotted for the indicated proteins. FIG. 4J are western blots of indicated melanomas pretreated with DMSO, PES or PET-16, followed by treatment with IL-6. Cell extracts were immunoblotted for the proteins indicated. Inhibition of IL-6 induced STAT3 and STAT1 phosphorylation by PET-16. FIG. 4K is a western blot analysis indicating altered processing of cathepsin L from the larger precursor form to the smaller mature form in the indicated cells following PET-16 treatment for 24 h. FIG. 4L is a western blot of the human melanoma 451 Lu cells treated with DMSO, PES or PET-16 for 24 h. Cells were harvested in 1% NP40-containing lysis buffer, fractionated into detergent-soluble and detergent-insoluble preparations, and assayed by western blot for ubiquitin. […]

Chain of HSP70 (P0DMV8 whole entry): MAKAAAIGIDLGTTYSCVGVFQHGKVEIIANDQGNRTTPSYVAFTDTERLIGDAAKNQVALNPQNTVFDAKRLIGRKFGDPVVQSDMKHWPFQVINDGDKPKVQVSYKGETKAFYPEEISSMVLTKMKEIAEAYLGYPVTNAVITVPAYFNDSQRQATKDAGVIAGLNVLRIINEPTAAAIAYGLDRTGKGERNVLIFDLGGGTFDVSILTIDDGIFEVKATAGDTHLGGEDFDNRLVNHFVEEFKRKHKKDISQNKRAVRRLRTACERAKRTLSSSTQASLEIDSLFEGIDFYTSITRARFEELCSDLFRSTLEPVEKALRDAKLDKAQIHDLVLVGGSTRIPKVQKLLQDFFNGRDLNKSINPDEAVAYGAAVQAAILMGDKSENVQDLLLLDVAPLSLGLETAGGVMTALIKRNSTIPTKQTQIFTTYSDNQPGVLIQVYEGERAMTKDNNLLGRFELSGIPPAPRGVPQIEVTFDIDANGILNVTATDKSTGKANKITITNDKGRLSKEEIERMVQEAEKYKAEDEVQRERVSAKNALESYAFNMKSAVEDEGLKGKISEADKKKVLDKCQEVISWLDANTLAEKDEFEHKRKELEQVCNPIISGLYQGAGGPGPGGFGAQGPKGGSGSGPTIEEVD

SMILES: C(#C[P+](c1ccccc1)(c1ccccc1)c1ccccc1)c1ccccc1.[Br-] [PET-16, triphenyl(phenylethynyl)phosphonium bromide]
- effect on viability of non-transformed cells [1]: little effect
- E. coli phenotype [2]: cell filamentation and reduced viability
- effect on growth of E. coli ([2]; 6 h at 43° C.): impaired bacterial growth
- synergy with PLX4032 (Vemurafenib) [3]: able to synergize
- lung metastases [4]: significantly reduced
- melanoma growth in vivo [5]: inhibits melanoma xenograft growth
- interactions between HSP70 and client/substrate proteins [6]: loss of interactions
